This experiment concerns the target T1, hCRHR2 (Homo sapiens, UniProt Q13324).
T1 sequence (Q13324 1-411): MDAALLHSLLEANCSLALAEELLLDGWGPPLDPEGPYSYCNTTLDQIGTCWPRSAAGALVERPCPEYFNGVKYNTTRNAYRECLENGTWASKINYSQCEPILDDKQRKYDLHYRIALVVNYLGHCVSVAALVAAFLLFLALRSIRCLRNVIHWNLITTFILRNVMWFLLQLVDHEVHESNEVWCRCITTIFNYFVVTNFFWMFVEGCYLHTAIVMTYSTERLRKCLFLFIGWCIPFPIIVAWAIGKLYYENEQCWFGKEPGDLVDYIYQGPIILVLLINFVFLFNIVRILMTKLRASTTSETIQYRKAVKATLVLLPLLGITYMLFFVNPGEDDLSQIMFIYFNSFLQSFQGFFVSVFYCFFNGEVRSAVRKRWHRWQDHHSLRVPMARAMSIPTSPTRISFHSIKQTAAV
The experiment can be described thus: HTRF cAMP assay, determination of hCRHR2 potency (peptide libraries 5 conc., purified peptides 11 conc.). Format: cell-based. Conditions: for Selectivity ratio (hCRHR1/ hCRHR2): hCRHR1-EC50/hCRHR2-EC50; for EC50: purified peptides, CHO-K1 cells stably expressing hCRHR2, cAMP HTRF, read-out: hCRHR2 EC50. From the text:
HTRF (CisBio) cAMP assay: The assay technology has thoroughly been described in the CisBio HTRF cAMP assay Kit manual (# 62AM4PEC). Briefly, time resolved fluorescence technic was applied to measure cAMP. This technic is based on a competitive immunoassay using cryptate-labelled anti-cAMP antibody and d2-labeled cAMP. In the absence of cellular cAMP, the anti-cAMP cryptate conjugate may get into proximity to cAMP-d2 conjugate and energy (FRET) can be transferred from cryptate to d2.
CHO-K1 cells stably expressing the human corticotropin-releasing hormone receptor 2 (Eurofins/DiscoverX, Cat #95-0048C2 hCRHR2 stable monoclonal cell lines) were used as cells in suspension, brought to life from frozen cell stocks immediately before assay performance.
Concentration-response evaluation of compounds was performed with 5 concentrations of agonist peptides and EC50 values were calculated by nonlinear regression using sigmoid concentration-response with variable slope.
Concentration-response evaluation of compounds was performed with 11 concentrations of agonist peptides and EC50 values were calculated by nonlinear regression using sigmoid concentration-response with variable slope.

Structures are written as SMILES. Starred links: 1 amine or outer side, 2 acyl side, 3 side chain; linkers in the order of their positions; H or OH if unused. Non-standard residues stand in square brackets, D forms with d. Residues, ends and D or L forms follow the SMILES beside them. Groups on a side chain read outwards from the residue. *: point of attachment. C20 diacid = O=C(O)CCCCCCCCCCCCCCCCCCC(=O)*; γGlu = O=C(O)[C@H](CCC(=O)[*:2])N[*:1]; NMeI = CC[C@H](C)[C@H](NC)C(=O)O; AEEA = NCCOCCOCC(=O)O

Broadly, the EC50 is the concentration at which the effect is half-maximal. Take `CC[C@H](C)[C@H](NC)C(=O)N[C@H](C(=O)N[C@@H](CC(C)C)C(=O)N[C@@H](CO)C(=O)N[C@@H](CC(C)C)C(=O)N[C@@H](CC(=O)O)C(=O)N[C@H](C(=O)N1CCC[C@H]1C(=O)N[C@H](C(=O)NCC(=O)N[C@@H](CC(C)C)C(=O)N[C@@H](CC(C)C)C(=O)N[C@@H](CCC(N)=O)C(=O)N[C@H](C(=O)N[C@@H](CC(C)C)C(=O)N[C@@H](CC(C)C)C(=O)N[C@@H](CCC(=O)O)C(=O)N[C@@H](CCC(N)=O)C(=O)N[C@@H](CCC(=O)O)C(=O)N[C@@H](CCCCN)C(=O)N[C@@H](CCC(N)=O)C(=O)N[C@@H](CCC(=O)O)C(=O)N[C@@H](CCCCN)C(=O)N[C@@H](CCC(=O)O)C(=O)N[C@@H](CCCCN)C(=O)N[C@@H](CCC(N)=O)C(=O)N[C@@H](CCC(N)=O)C(=O)N[C@@H](C)C(=O)N[C@@H](CCCCNC(=O)COCCOCCNC(=O)COCCOCCNC(=O)CC[C@H](NC(=O)CC[C@H](NC(=O)CCCCCCCCCCCCCCCCCCC(=O)O)C(=O)O)C(=O)O)C(=O)N[C@H](C(=O)N[C@@H](CC(N)=O)C(=O)N[C@@H](C)C(=O)N[C@@H](CCC(N)=O)C(=O)N[C@H](C(=O)N[C@@H](CC(C)C)C(=O)N[C@@H](C)C(=O)N[C@@H](CCC(N)=O)C(=O)N[C@H](C(N)=O)C(C)C)[C@@H](C)CC)[C@@H](C)O)[C@@H](C)CC)[C@@H](C)CC)C(C)C)C(C)C` [SEQ ID NO: 9, reference compound] (H-[NMeI]VLSLDVPIGLLQILLEQEKQEKEKQQAK([AEEA-AEEA-γGlu-γGlu-C20 diacid])TNAQILAQV-NH2): the “Selectivity ratio (hCRHR1/ hCRHR2)” value is given as 392 and the EC50 came out at 1.3 nM.
In the case of `CC[C@H](C)[C@H](NC(=O)COCCOCCNC(=O)COCCOCCNC(=O)CC[C@H](NC(=O)CC[C@H](NC(=O)CCCCCCCCCCCCCCCCCCC(=O)O)C(=O)O)C(=O)O)C(=O)N[C@H](C(=O)N[C@@H](CC(C)C)C(=O)N[C@@H](CO)C(=O)N[C@@H](CC(C)C)C(=O)N[C@@H](CC(=O)O)C(=O)N[C@H](C(=O)N1CCC[C@H]1C(=O)N[C@H](C(=O)NCC(=O)N[C@@H](CC(C)C)C(=O)N[C@@H](CC(C)C)C(=O)N[C@@H](CCC(N)=O)C(=O)N[C@H](C(=O)N[C@@H](CC(C)C)C(=O)N[C@@H](CC(C)C)C(=O)N[C@@H](CCC(=O)O)C(=O)N[C@@H](CCC(N)=O)C(=O)N[C@@H](C)C(=O)N[C@@H](CCCNC(=N)N)C(=O)N[C@@H](C)C(=O)N[C@@H](CCCNC(=N)N)C(=O)N[C@@H](C)C(=O)N[C@@H](C)C(=O)N[C@@H](CCCNC(=N)N)C(=O)N[C@@H](CCC(=O)O)C(=O)N[C@@H](CCC(N)=O)C(=O)N[C@@H](C)C(=O)N[C@H](C(=O)N[C@H](C(=O)N[C@@H](CC(N)=O)C(=O)N[C@@H](C)C(=O)N[C@@H](CCC(=O)O)C(=O)N[C@H](C(=O)N[C@@H](CC(C)C)C(=O)N[C@@H](C)C(=O)N[C@@H](CCC(=O)O)C(=O)N[C@H](C(N)=O)C(C)C)[C@@H](C)CC)[C@@H](C)O)[C@@H](C)O)[C@@H](C)CC)[C@@H](C)CC)C(C)C)C(C)C` [SEQ ID NO: 260] ({C20 diacid-γGlu-γGlu-AEEA-AEEA}-IVLSLDVPIGLLQILLEQARARAAREQATTNAEILAEV-NH2), the “Selectivity ratio (hCRHR1/ hCRHR2)” value was 79 and the EC50 worked out at 1.4 nM.
In the case of `CC[C@H](C)[C@H](NC)C(=O)N[C@H](C(=O)N[C@H](C(=O)N[C@@H](CO)C(=O)N[C@@H](CC(C)C)C(=O)N[C@@H](CC(=O)O)C(=O)N[C@H](C(=O)N1CCC[C@H]1C(=O)N[C@H](C(=O)NCC(=O)N[C@@H](CC(C)C)C(=O)N[C@@H](CC(C)C)C(=O)N[C@@H](CCC(N)=O)C(=O)N[C@H](C(=O)N[C@@H](CC(C)C)C(=O)N[C@@H](CC(C)C)C(=O)N[C@@H](CCC(=O)O)C(=O)N[C@@H](CCC(N)=O)C(=O)N[C@@H](CCC(=O)O)C(=O)N[C@@H](CCCCN)C(=O)N[C@@H](CCC(N)=O)C(=O)N[C@@H](CCC(=O)O)C(=O)N[C@@H](CCCCN)C(=O)N[C@@H](CCC(=O)O)C(=O)N[C@@H](CCCCN)C(=O)N[C@@H](CCC(N)=O)C(=O)N[C@@H](CCC(N)=O)C(=O)N[C@@H](C)C(=O)N[C@@H](CCCCNC(=O)COCCOCCNC(=O)COCCOCCNC(=O)CC[C@H](NC(=O)CC[C@H](NC(=O)CCCCCCCCCCCCCCCCCCC(=O)O)C(=O)O)C(=O)O)C(=O)N[C@H](C(=O)N[C@@H](CC(N)=O)C(=O)N[C@@H](C)C(=O)N[C@@H](CCC(=O)O)C(=O)N[C@H](C(=O)N[C@@H](CC(C)C)C(=O)N[C@@H](C)C(=O)N[C@@H](CCC(N)=O)C(=O)N[C@H](C(N)=O)C(C)C)[C@@H](C)CC)[C@@H](C)O)[C@@H](C)CC)[C@@H](C)CC)C(C)C)[C@@H](C)O)C(C)C` [SEQ ID NO: 10, reference compound] (H-[NMeI]VTSLDVPIGLLQILLEQEKQEKEKQQAK([AEEA-AEEA-γGlu-γGlu-C20 diacid])TNAEILAQV-NH2), the “Selectivity ratio (hCRHR1/ hCRHR2)” value is given as 139 and the EC50 came to 0.49 nM.
For `CC[C@H](C)[C@H](NC(=O)[C@H](CCC(=O)O)NC(=O)[C@H](C)NC(=O)[C@H](CC(N)=O)NC(=O)[C@@H](NC(=O)[C@@H](NC(=O)[C@H](C)NC(=O)[C@H](CCC(N)=O)NC(=O)[C@H](CCC(=O)O)NC(=O)[C@H](CCCNC(=N)N)NC(=O)[C@H](C)NC(=O)[C@H](C)NC(=O)[C@H](CCCNC(=N)N)NC(=O)[C@H](C)NC(=O)[C@H](CCCNC(=N)N)NC(=O)[C@H](C)NC(=O)[C@H](CCC(N)=O)NC(=O)[C@H](CCC(=O)O)NC(=O)[C@H](CC(C)C)NC(=O)[C@H](CC(C)C)NC(=O)[C@@H](NC(=O)[C@H](CCC(N)=O)NC(=O)[C@H](CC(C)C)NC(=O)[C@H](CC(C)C)NC(=O)CNC(=O)[C@@H](NC(=O)[C@@H]1CCCN1C(=O)[C@@H](NC(=O)[C@H](CC(=O)O)NC(=O)[C@H](CC(C)C)NC(=O)[C@H](CO)NC(=O)[C@H](CC(C)C)NC(=O)[C@@H](NC(=O)[C@@H](NC(=O)[C@@H](N)CCCCNC(=O)COCCOCCNC(=O)COCCOCCNC(=O)CC[C@H](NC(=O)CC[C@H](NC(=O)CC[C@H](NC(=O)CCCCCCCCCCCCCCCCCCC(=O)O)C(=O)O)C(=O)O)C(=O)O)[C@@H](C)CC)C(C)C)C(C)C)[C@@H](C)CC)[C@@H](C)CC)[C@@H](C)O)[C@@H](C)O)C(=O)N[C@@H](CC(C)C)C(=O)N[C@@H](C)C(=O)N[C@@H](CCC(=O)O)C(=O)N[C@H](C(N)=O)C(C)C` [SEQ ID NO: 11, reference compound] (H-K([AEEA-AEEA-γGlu-γGlu-γGlu-C20 diacid])IVLSLDVPIGLLQILLEQARARAAREQATTNAEILAEV-NH2), in that order: 419 and 1.6 nM.
For the compound `CC[C@H](C)[C@H](NC(C)=O)C(=O)N[C@H](C(=O)N[C@@H](CC(C)C)C(=O)N[C@@H](CO)C(=O)N[C@@H](CC(C)C)C(=O)N[C@@H](CC(=O)O)C(=O)N[C@H](C(=O)N1CCC[C@H]1C(=O)N[C@H](C(=O)NCC(=O)N[C@@H](CC(C)C)C(=O)N[C@@H](CC(C)C)C(=O)N[C@@H](CCC(N)=O)C(=O)N[C@H](C(=O)N[C@@H](CC(C)C)C(=O)N[C@@H](CC(C)C)C(=O)N[C@@H](CCC(=O)O)C(=O)N[C@@H](CCC(N)=O)C(=O)N[C@@H](C)C(=O)N[C@@H](CCCNC(=N)N)C(=O)N[C@@H](C)C(=O)N[C@@H](CCCNC(=N)N)C(=O)N[C@@H](C)C(=O)N[C@@H](C)C(=O)N[C@@H](CCCNC(=N)N)C(=O)N[C@@H](CCC(=O)O)C(=O)N[C@@H](CCC(N)=O)C(=O)N[C@@H](C)C(=O)N[C@@H](CCCCNC(=O)COCCOCCNC(=O)COCCOCCNC(=O)CC[C@H](NC(=O)CC[C@H](NC(=O)CCCCCCCCCCCCCCCCCCC(=O)O)C(=O)O)C(=O)O)C(=O)N[C@H](C(=O)N[C@@H](CC(N)=O)C(=O)N[C@@H](C)C(=O)N[C@@H](CCC(=O)O)C(=O)N[C@H](C(=O)N[C@@H](CC(C)C)C(=O)N[C@@H](C)C(=O)N[C@@H](CCC(=O)O)C(=O)N[C@H](C(N)=O)C(C)C)[C@@H](C)CC)[C@@H](C)O)[C@@H](C)CC)[C@@H](C)CC)C(C)C)C(C)C` [SEQ ID NO: 8] (Ac-IVLSLDVPIGLLQILLEQARARAAREQAK([AEEA-AEEA-γGlu-γGlu-C20 diacid])TNAEILAEV-NH2), the “Selectivity ratio (hCRHR1/ hCRHR2)” value came to 400 and the EC50 is 1.4 nM.

(Values after patent EP4810052A2, “HCRHR2 SELECTIVE POLYPEPTIDES” (Gubra A/S, priority 2023, dated 2026).)
